In ChEMBL document CHEMBL5726429, “Inhibitors of lysine specific demethylase-1” (2017) one finds IC50 data, which are given here for 1 compound.

The assay deals with Lysine-specific histone demethylase 1A (Homo sapiens, UniProt O60341). The experiment in a line: In Vitro Enzyme Inhibition Assay: The enzymatic assay of LSD1 activity is based on Time Resolved-Fluorescence Resonance Energy Transfer (TR-FRET) detection. The inhibitory properties of compounds to LSD1 were determined in 384-well plate format under the following reaction conditions: 0.1-0.5 nM LSD1, 50 nM H3K4mel-biotin labeled peptide (Anaspec cat # 64355), 2 μM FAD in assay buffer of 50 mM …. A general note: TR-FRET usually uses a lanthanide donor and a delayed reading to cut background.

`Cn1c(N2CCC(N)CC2)nc(-c2ccc(C#N)c(F)c2)c(Cl)c1=O` displayed an IC50 of less than 100 nM.

A word on the IC50: it is the concentration needed to halve the response being measured. Read a low IC50 as greater potency in that assay.
